Results reported in patent US20090239920A1, “PHARMACEUTICAL FORMULATIONS OF AN ANHYDRATE CRYSTAL FORM OF 2-(3-FLUORO-4-HYDROXYPHENYL)-7-VINYL-1,3-BENZOXAZOL-5-OL” (WYETH, priority 2006, published 2009).

Experiment: Crystal form conversion of Form D suspended and stirred in solvent at room temperature for seven days
Assay type: physicochemical
Source text: The anhydrate crystal form (Form D) can be converted to other crystal forms under suitable conditions. […] 6, 2006).

C=Cc1cc(O)cc2nc(-c3ccc(O)c(F)c3)oc12 [Form D, 2-(3-fluoro-4-hydroxyphenyl)-7-vinyl-1,3-benzoxazol-5-ol]
crystal form conversion (polymorphic stability) (suspended and stirred in ethanol or acetone at room temperature for seven days): another anhydrate crystal form is obtained | crystal form conversion (polymorphic stability) (suspended and stirred in methanol at room temperature for seven days): another anhydrate crystal form is obtained | crystal form conversion (polymorphic stability) (suspended and stirred in water at room temperature for seven days): most of the anhydrate crystal form is converted to a hydrate crystal form
